Key:
[1] = test system: vascular endothelial cells; assay: Cellular lipid deposition assay (oil red O staining); format: cell-based; settings: different concentrations of antcin K
Description: We used oil red O staining which was clearly described in a previous report (Luo et al., 2021) to examine cellular lipid deposition. RAW264.7 macrophages were fixed with 2% paraformaldehyde for 10-15 min at room temperature, washed three times with phosphate-buffered saline (PBS) and twice with ddH2O, and stained with 5% oil red O dye for 15 min at room temperature, then the supernatant was discarded. Vascular endothelial cells and RAW264.7 macrophages were infiltrated with 60% isopropanol, washed twice with ddH2O, and photographed with an optical microscope (Olympus BH2 system light microscope, Olympus Corporation, Tokyo, Japan).

[2] = test system: RAW264.7 macrophages; assay: Cellular migration assay (transwell); format: cell-based; settings: 48 h
Description: RAW264.7 macrophage was purchased from the Hsin-Chu Food Industry Development Institute Cell Bank (FIRDI, Cat no: BCRC-60001). The cell culture medium contains high-glucose DMEM (Gibco BRL, Grand Island, NY, USA), 10% FBS, 1.5 g/L sodium bicarbonate, 0.11 g/L sodium pyruvate, 4 mM L-glutamine, 100 U/mL penicillin, and 100 μg/mL streptomycin. These cells were maintained in a humidified incubator at 37° C. and 5% CO2. After collecting the cells with a spatula, for each 24-well culture plate, all cell densities were adjusted to 1×10^5 cells per well for migration assays.
We used a cellular migration assay to examine the cellular migration ability of RAW 264.7 macrophages toward vascular endothelial cells with high-fat damage. The cellular migration assay has been clearly described in a previous report (Hwang et al., 2021). Transwells (Corning, New York, NY, USA) with 8.0 μm pore size were used in this experiment for cell migration assays. In total, 1×10^5 RAW264.7 macrophage, labeled with the red fluorescent dye of 1,1′-Dioctadecyl-6,6′-Di(4-Sulfophenyl) (SP-Di1C18(3)), was added to the upper layer of transwell after 48 h. […] Images were taken with a fluorescence microscope (Leica Microsystems, Wetzlar, Germany), and analysis was performed using Leica Application Suite software (LAS) V4.12 s (Leica Microsystems, Wetzlar, Germany) after 48 h of culture.

[3] = DPPH free radical scavenging assay; format: biochemical
Description: The antioxidant capacity of antcin K was examined by 1,1-diphenyl-2-trinitrophenylhydrazyl (DPPH) assay in this study. We formulated DPPH (D9132, Sigma-Aldrich Co., St. Louis, MO, USA) at a concentration of 1.5 mM per 1 mL and added 9 mL of methanol (322415, Sigma-Aldrich Co., St. Louis, MO, USA) to the mixed solution. The 100 μL of DPPH and 100 μL of 10, 20, and 50 μg/mL of test samples were taken, shaken, and mixed evenly, then placed at room temperature for 30 min in the dark. After that, the absorbance was measured at 517 nm using an ultraviolet/visible light spectrometer (Microplate Spectrophotometer, uQuant, Biotek Instruments, Inc., Winooski, VT, USA).
Different concentrations of test samples were prepared and compared with the standard L-Ascorbic acid (L-AA) (A5960, Sigma-Aldrich Co., St. Louis, MO, USA). Based on the reduction percentage of the absorbance value observed in the control group, the antioxidant capacity of each test sample to scavenge DPPH free radicals can be judged. After that, the test sample with the most robust ability to scavenge DPPH free radicals was selected and repeated three times. The formula is as follows: DPPH free radical scavenging rate (%)=(1−(absorption value of experimental group/absorption value of control group))×100.

[4] = test system: TNF-α; assay: ELISA of TNF-α in palm acid oil-treated vascular endothelial cells; format: cell-based, mouse
Description: (§1) Vascular endothelial cells (SVEC4-10) were purchased from the Cell Bank of Hsin-Chu Food Industry Development Institute (FIRDI, Cat no: BCRC-60220). SVEC4-10 cells were cultured in high-glucose DMEM (Dulbecco's Modified Eagle Medium) (Gibco BRL, Grand Island, NY, USA) and supplemented with 10% Fetal Bovine Serum (FBS) (HyClone, Logan, UT, USA), 1.5 g/L sodium bicarbonate, 0.11 g/L sodium pyruvate, 4 mM L-glutamine, 100 U/mL penicillin, and 100 μg/mL streptomycin (Gibco BRL, Grand Island, NY, USA).
(§2) These cells were grown in a culture medium and maintained in a humidified incubator at 37° C. and 5% CO2. Vascular endothelial cells were digested with 0.25% trypsin (Gibco BRL, Grand Island, NY, USA) for approximately 1 min until most cells detached. All cell densities were adjusted to 1×10^5 cells per well for each 24-well culture plate. After vascular endothelial cells were cultured for 24 h, in the hyperlipidemia group, 0.75 mM palm acid oil (CAS 57-10-3-800508; Sigma-Aldrich Co., St. Louis, MO, USA) (Oh et al., 2018) was added, and 10, 20, and 50 μg/mL of antcin K in each experiment was individually added.
(§3) We analyzed the content of inflammatory cytokines by ELISA. The supernatant of SVEC4-10 cells with palm acid oil hyperlipidemia treatment was collected after 24 h of culture and added to a 96-well micro-well plate (Thermo Scientific Nunc®, Nunc AS, Copenhagen, Denmark). An amount of 100 μL/well of carbonate buffer containing antibodies of 32 ng/mL purified rat anti-mouse TNF-α (88-7324; Invitrogen, Carlsbad, CA, USA) or 32 ng/mL purified rat anti-mouse IL-1_(88-7013; Invitrogen, Carlsbad, CA, USA) was added to each well and kept at 4° C. overnight. After that, we washed three times with 0.05% phosphate-buffered saline with Tween 20 (PBST) buffer to remove unbound monoclonal antibodies. Then, we added 200 μL/well of blocking solution to reduce nonspecific binding. […] The reaction was terminated with 2% H2SO4, and the absorbance at 450-570 nm was measured.

[5] = test system: VCAM-1; assay: Immunofluorescence staining of VCAM-1 in vascular endothelial cells; format: cell-based, mouse; settings: 20 μg/mL with 0.75 mM palm acid oil; p<0.01
[6] = test system: CD36; assay: Immunofluorescence staining of CD36 in vascular endothelial cells; format: cell-based, mouse; settings: 20 μg/mL with 0.75 mM palm acid oil
Description: as §1
(§4) These cells were grown in a culture medium and maintained in a humidified incubator at 37° C. and 5% CO2. […]
(§5) We used immunofluorescence staining to examine expressions of KLF4 and CD36. […] Note that this step needs to be protected from light at the beginning Nuclei were stained with 1 μg/mL diamino-2-phenilindole (DAPI) (D3286, Sigma-Aldrich Co., St. Louis, MO, USA) for 10 min at room temperature after washing three times with PBS and mounted with a fluorescent protectant-containing adhesive to reduce fluorescence decay. Fluorescent images were obtained using a Leica DM IRB inverted fluorescence microscope (Leica Microsystems, Wetzlar, Germany), and analysis was performed using Leica Application Suite software (LAS) V4.12 s (Leica Microsystems, Wetzlar, Germany). The Rhodamine fluorescence-labeled cytoskeleton was visualized at 565 nm by exciting cells at 540 nm. […]

[7] = test system: TNF-α; assay: ELISA of TNF-α in RAW264.7 macrophages; format: cell-based, mouse; settings: 20 μg/mL with 0.75 mM palm acid oil (856.9 without)
[8] = test system: IL-1β; assay: ELISA of IL-1β in palm acid oil-treated vascular endothelial cells; format: cell-based, mouse
Description: as §1, §2, §3

[9] = test system: KLF4; assay: Immunofluorescence staining of KLF4 in vascular endothelial cells; format: cell-based, mouse; settings: 20 μg/mL with 0.75 mM palm acid oil; p<0.01
Description: as §1, §4, §5

[10] = test system: SVEC4-10 vascular endothelial cells; assay: MTT cell viability assay; format: cell-based; settings: for cell viability of vascular endothelial cells: sham = 100%
Description: as §1, §2
We used a 3-(4,5-Dimethylthiazol-2-yl)-2,5-diphenyltetrazolium bromide (MTT) assay to examine the cell viability of antcin K in this study. A total of 1×10^5 cells/mL SVEC4-10 cells were added to a 24-well plate, and 0.5 mM palm acid oil (Sigma-Aldrich Co., St. Louis, MO, USA) was partially added, and 10, 20, and 50 μg/mL of test samples were added to SVEC4-10 cells, followed by culturing within 24 h. After adding 0.5 mg/mL of MTT solution (M5655, Sigma-Aldrich Co., St. Louis, MO, USA) and culturing for 2 h, the supernatant was removed, and 100 μL/well of DMSO organic solvent was added, followed by a 5 min shaking and then absorbance measurement at 570 nm.

[11] = test system: IL-1β; assay: ELISA of IL-1β in RAW264.7 macrophages; format: cell-based, mouse; settings: 20 μg/mL with 0.75 mM palm acid oil (272.3 without)
[12] = Blood chemistry analysis (serum triglyceride, total cholesterol) in hypercholesterolemic rabbits; format: in vivo, rabbit; settings: week 12; rabbits on 0.5% cholesterol chow plus 1% extract, 10 mg/kg pure compound or 10 mg/kg lovastatin; vs high fat diet group
Description: (§6) 2 to 3 kg male, New Zealand White rabbits were individually caged and housed in temperature and humidity-controlled rooms. Light-dark cycles were 12 h each. After several days of acclimation, the animals were sequentially assigned to six feeding groups: standard rabbit chow (ND), standard rabbit chow containing 0.5% cholesterol (HF), standard rabbit chow containing both 0.5% cholesterol and 10 mg/kg Lovastatin (L), standard rabbit chow containing both 0.5% cholesterol and 1% ARH003 (ARH003), standard rabbit chow containing both 0.5% cholesterol and 1% ARH004 (ARH004), standard rabbit chow containing both 0.5% cholesterol and 10 mg/kg Pure compound (P).
(§7) Except standard rabbit chow, others groups were given standard rabbit chow containing 0.5% cholesterol for 4 weeks. The daily feeding amount for each rabbit was 50 g/kg body weight per day.
(§8) Diets were administered for 8 weeks, after the animals had adjusted to their new environment. At the beginning and end of the 12 weeks study, the rabbits were anesthetized by an intramuscular injection of Zoletil 50 (1 mL/kg) (Virbac Ltd., France), and blood samples were harvested. Finally, the aortas (from aortic arch to the bifurcation of the iliac arteries) and whole livers were collected from the rabbits after they were sacrificed for further histopathological analyses.
The animals were fasted overnight before blood drawing. […]

[13] = Body weight in hypercholesterolemic rabbit model; format: in vivo; settings: rabbits on chow with 0.5% cholesterol plus 1% extract, 10 mg/kg pure compound or 10 mg/kg lovastatin; during the intervention
Description: as §6, §7, §8

C=C(CC[C@@H](C)[C@H]1CC[C@H]2C3=C(C(=O)C[C@]12C)[C@@]1(C)CC[C@H](O)[C@](C)(O)C1CC3O)C(C)C(=O)O (stereo partly shown) [antcin K, 3a,4b,7b-tri-hydroxy4a-methylergosta-8,24(28)-dien-11-on-26-oic acid]
lipid deposition in palm acid oil-treated vascular endothelial cells [1]: decreased
migration of RAW264.7 macrophages to palm acid oil-treated vascular endothelial cells [2]: enhanced
free radicals scavenging efficiency (DPPH) ([3]; 20 μg/mL): 96.82%
free radicals scavenging efficiency (DPPH) ([3]; 50 μg/mL): 98.81%
expression of TNF-α of vascular endothelial cells ([4]; 10 μg/mL with 0.75 mM palm acid oil (285.5 without)): 178.8 pg/mL
expression of TNF-α of vascular endothelial cells ([4]; 20 μg/mL with 0.75 mM palm acid oil (285.5 without)): 180.3 pg/mL
expression of TNF-α of vascular endothelial cells ([4]; 50 μg/mL with 0.75 mM palm acid oil (285.5 without)): 181.0 pg/mL
expression of VCAM-1 in palm acid oil-treated vascular endothelial cells [5]: significantly decreased
expression of CD36 in palm oil-treated vascular endothelial cells [6]: decreased
expression of TNF-α of RAW264.7 macrophages [7]: 690.7 pg/mL
expression of IL-1β of vascular endothelial cells ([8]; 10 μg/mL with 0.75 mM palm acid oil (86.6 without)): 70.2 pg/mL
expression of IL-1β of vascular endothelial cells ([8]; 20 μg/mL with 0.75 mM palm acid oil (86.6 without)): 69.3 pg/mL
expression of IL-1β of vascular endothelial cells ([8]; 50 μg/mL with 0.75 mM palm acid oil (86.6 without)): 71.5 pg/mL
expression of KLF4 in palm acid oil-treated vascular endothelial cells [9]: significantly increased
cell viability of vascular endothelial cells ([10]; 10 μg/mL with 0.75 mM palm acid oil): 71.5%
cell viability of vascular endothelial cells ([10]; 20 μg/mL with 0.75 mM palm acid oil): 84.6%
cell viability of vascular endothelial cells ([10]; 50 μg/mL with 0.75 mM palm acid oil): 109.2%
change of cell viability of vascular endothelial cells ([10]; 10, 20 and 50 μg/mL without palm acid oil damage): not very obvious
IC50 ([10]; Mus musculus, SVEC4-10, antcin K treatment 0-50 μg/mL, MTT): > 50 µg/mL
expression of IL-1β of RAW264.7 macrophage cells [11]: 189.2 pg/mL

CC[C@H](C)C(=O)O[C@H]1C[C@@H](C)C=C2C=C[C@H](C)[C@H](CC[C@@H]3C[C@@H](O)CC(=O)O3)[C@H]21 [lovastatin]
serum total cholesterol levels [12]: higher
body weight gains [13]: did not affect
